# Measurements taken from US20220273608A1, “Methods for Treating Bone-Related Disorders” (University of Maryland, Baltimore, priority 2016, published 2022).
# “Also recorded” adds a separate entry of the source. Where two headings read alike, the source gives them in different places.
# Key:
# CaMKII = assay type: cell-based; settings: for phospho-CaMKII (CaMKII activation): independently of FSS
# Experimental: (§1) Cells in culture were exposed to fluid flow using a custom FSS device (63). Cell media was removed and cells were rinsed in HEPES-buffered Ringer solution containing 140 mM NaCl, 4 mM KCl, 1 mM MgSO4, 5 mM NaHCO3, 10 mM glucose, 1.8 mM CaCl2 and 10 mM HEPES (pH 7.3). Ringer solution was also used as fluid flow buffer. For Calcium-free conditions, HEPES-buffered Manganese Ringer solution, containing 140 mM NaCl, 4 mM KCl, 1 mM MgSO4, 5 mM NaHCO3, 10 mM glucose, 2 mM MnCI and 10 mM HEPES (pH 7.3), was used, and cells were loaded with BATPA AM ester (10 μM, 30 min).
# sclerostin [1] = experiment: Immunoblotting for sclerostin / GAPDH in Ocy454 cells; assay type: cell-based, mouse; settings: for sclerostin protein: independently of FSS
# Experimental: as §1
# Ocy454 cells [2] = experiment: ROS imaging (CellROX) of Ocy454 cells; assay type: cell-based, mouse; settings: for ROS production: no FSS, CellROX
# Experimental: (§2) Cells in culture were exposed to fluid flow using a custom FSS device (63). Cell media was removed and cells were rinsed in HEPES-buffered Ringer solution containing 140 mM NaCl, 4 mM KCl, 1 mM MgSO4, 5 mM NaHCO3, 10 mM glucose, 1.8 mM CaCl2 and 10 mM HEPES (pH 7.3). Ringer solution was also used as fluid flow buffer. For Calcium-free conditions, HEPES-buffered Manganese Ringer solution, containing 140 mM NaCl, 4 mM KCl, 1 mM MgSO4, 5 mM NaHCO3, 10 mM glucose, 2 mM MnCI and 10 mM HEPES (pH 7.3), was used, and cells were loaded with BATPA AM ester (10 μM, 30 min). […] For Ca^2+ imaging, cells were loaded with Fluo-4 AM ester (ThermoFisher, 5 μM) for 30 min, washed, and allowed to rest for 15 min to allow dye de-esterification, as described. For ROS imaging, cells were loaded with CellROX (ThermoFisher, 5 μM) for 30 min and then washed 3 times, per the manufacturer's recommendations. Individual wells were imaged as described (39). Time-lapse fluorescence intensity measurements were collected using ImageJ Time Series Analyzer plugin and data was analyzed and plotted using Origin Pro software. Final results represent a minimum of three independent experiments performed on separate days with new cultures (n>700 cells/treatment group). All conditions were run with controls on each experimental day.
# Ocy454 cells [3] = experiment: Ca2+ imaging (Fluo-4) of Ocy454 cells, with or without fluid shear stress; assay type: cell-based, mouse
# Experimental: as §2
# Glu-tubulin [4] = experiment: Glu-tubulin in ex vivo murine long bone (western blot); settings: murine cortical bone ex vivo
# Text: The antibodies used were: sclerostin (R&D Sytems, AF1589), α-tubulin (Sigma, T9026), Glu-tubulin (Abcam, ab48389), phospho-CamK II Thr^286 (Cell Signaling Technologies, 12716S), total CaMKII (Cell Signaling Technologies, 11945S), and GAPDH (Millipore, MAB374).
# Ocy454 cells [5] = experiment: Immunostaining for α-tubulin (microtubule network) in Ocy454 cells; settings: α-tubulin immunofluorescence
# Glu-tubulin [6] = settings: Ocy454 cells in vitro
# Text: The antibodies used were: a-tubulin (Sigma, T9026), Glu-tubulin (Abcam, ab48389) and TRPV4 (Abcam, ab39260).
# Western blotting of whole cell extracts isolated from cells in culture following FSS or extracts isolated from murine long bone were done. Equal amounts of protein were loaded and electrophoresed on 10% SDS-PAGE gels and transferred to polyvinylidene difluoride membranes. Membranes were blocked in 5% non-fat dry milk (unless otherwise stated), probed with the indicated primary antibodies overnight and 4° C. Antibodies were detected with the appropriate horseradish peroxidase-conjugated secondary antibodies (Cell Signaling Technology) and enhanced chemiluminescence detection reagent (Biorad). […] Blots were acquired using an EpiChem gel documentation system (UVP Bioimaging Systems) and analyzed using ImageJ software.
# Ocy454 cells [7] = experiment: Atomic force microscopy nano-indentation of Ocy454 cells; assay type: cell-based, mouse; settings: AFM nanoindentation, 2 h treatment
# Experimental: Ocy454 cells were plated onto 22 mm×22 mm glass coverslips and allowed to grow for 16-24 h at 37° C., 5% CO2 with αMEM media. Thereafter, cells were washed with PBS before being incubated with pharmacological agents as indicated for 2 h at 37° C., 5% CO2 in αMEM. After each treatment, cells were transferred to 60 mm culture dishes with pre-warmed HEPES based media containing identical concentrations of the aforementioned agents. Cells were probed with an MFP-1D atomic force microscope (Asylum Research) using MLCT cantilevers (Bruker) with a nominal spring constant of k=0.01 N/m. The pull distance used was 2 μm with a tip velocity of 4 μm/s to generate ˜1-2 nN of force onto the cell corresponding to ˜1 μm indentation ensuring that the cytoskeleton was effectively being probed. The elastic moduli (stiffness) of the cells were calculated using the Sneddon Hertz model as described (66).
# aged mice [8] = experiment: White adipose tissue in colchicine treated aged mice
# aged mice [9] = experiment: Bone formation and bone mass (DEXA, microCT) in colchicine treated aged mice; assay type: in vivo
# sclerostin [10] = experiment: Bone derived sclerostin in colchicine treated aged mice; assay type: in vivo; settings: aged mice (78 weeks), 1 mg/L colcrys in drinking water, 8 weeks
# aged mice [11] = experiment: Muscle testing in colchicine treated aged mice; assay type: in vivo; settings: 8 weeks colchicine
# Experimental: Young and aged mice were treated with colchicine as per the bone formation study followed by euthanasia and muscle testing. After 8 weeks aged mice had increased muscle power.
# [12] = cells treated with H2O2, no FSS
# [13] = whole body DEXA, 8 weeks colchicine
compound,measurement,setting,value
CC(=O)OCOC(=O)CN(CC(=O)OCOC(C)=O)c1ccccc1OCCOc1ccccc1N(CC(=O)OCOC(C)=O)CC(=O)OCOC(C)=O [BAPTA AM],FSS-induced CaMKII phosphorylation,CaMKII; 4 dynes/cm^2 FSS,inhibited
same,FSS-induced decrease in sclerostin protein,sclerostin [1]; 4 dynes/cm^2 FSS,inhibited
O=C(NC1(c2ccccc2)CC1)c1c(CN2CCC(N3CCCCC3)CC2)c(-c2cccc(C(F)(F)F)c2)nc2cc(Br)ccc12 [GSK2193874],H2O2-induced ROS,Ocy454 cells [2]; [12],without affecting
same,"% Cells Responding to FSS, Ca2+ response (mechano-sensitivity)",Ocy454 cells [3]; 4 dynes/cm^2 FSS,statistically significant decrease
same,Peak(ΔF/F) magnitude of Ca2+ response (mechano-responsiveness),Ocy454 cells [3]; 4 dynes/cm^2 FSS,statistically significant decrease
same,H2O2-induced Ca2+ influx,Ocy454 cells [3]; [12],blunted
same,FSS-induced CaMKII phosphorylation,CaMKII; 4 dynes/cm^2 FSS,reduction
same,FSS-induced decrease in sclerostin protein,sclerostin [1]; 4 dynes/cm^2 FSS,blunted
CC(C)C[C@H](NC(=O)c1cc2ccccc2s1)C(=O)N1CCN(C(=O)[C@H](CO)NS(=O)(=O)c2ccc(Cl)cc2Cl)CC1 [GSK-1016790A],ROS production,Ocy454 cells [2],insufficient to induce
same,phospho-CaMKII (CaMKII activation),CaMKII,activation
same,sclerostin protein,sclerostin [1],reduction
"OO [H2O2, Hydrogen peroxide]",ROS production,Ocy454 cells [2],stimulated
same,intracellular Ca2+,"Ocy454 cells [3]; no FSS, Fluo-4",stimulated
same,phospho-CaMKII (CaMKII activation),CaMKII,increased
same,sclerostin protein,sclerostin [1],reduced
COc1ccc(S(=O)(=O)N(CCO)c2ccccc2CN(C)C/C=C/c2ccc(Cl)cc2)cc1 [KN-93],FSS-induced decrease in sclerostin protein,sclerostin [1]; 4 dynes/cm^2 FSS,prevented
"CC(=O)N[C@@H](CS)C(=O)O [NAC, N-acetylcysteine]",FSS-induced Ca2+ response,Ocy454 cells [3]; 4 dynes/cm^2 FSS,abrogated
same,FSS-induced Ca2+ response,Ocy454 cells [3]; 16 dynes/cm^2 FSS,abrogated
same,FSS-induced CaMKII phosphorylation,"CaMKII; FSS, magnitude not stated",reduction
same,FSS-induced decrease in sclerostin protein,"sclerostin [1]; FSS, magnitude not stated",blunting
CC(=O)O[C@H]1C(=O)[C@@]2(C)[C@H]([C@H](OC(=O)c3ccccc3)[C@]3(O)C[C@H](OC(=O)[C@H](O)[C@@H](NC(=O)c4ccccc4)c4ccccc4)C(C)=C1C3(C)C)[C@]1(OC(C)=O)CO[C@@H]1C[C@@H]2O [Taxol],amount of Glu-tubulin,Glu-tubulin [4],markedly increased
same,microtubule network density / structure,Ocy454 cells [5],increase in microtubule density
same,"% Cells Responding to FSS, Ca2+ response (mechano-sensitivity)",Ocy454 cells [3]; 4 dynes/cm^2 FSS,statistically significant decrease
same,FSS-induced Ca2+ response,Ocy454 cells [3]; 4 dynes/cm^2 FSS,blunts
same,Peak(ΔF/F) magnitude of Ca2+ response (mechano-responsiveness),Ocy454 cells [3]; 4 dynes/cm^2 FSS,decrease
same,"% Cells Responding to FSS, Ca2+ response (mechano-sensitivity)",Ocy454 cells [3]; 16 dynes/cm^2 FSS,restored
same,Peak(ΔF/F) magnitude of Ca2+ response (mechano-responsiveness),Ocy454 cells [3]; 16 dynes/cm^2 FSS,restored
same,amount of Glu-tubulin,Glu-tubulin [6],markedly increased; also recorded: marked increase
same,FSS-induced CaMKII phosphorylation,CaMKII; 4 dynes/cm^2 FSS,reduced; also recorded: blunts
same,FSS-induced CaMKII phosphorylation,CaMKII; 16 dynes/cm^2 FSS,restored
same,elastic modulus (cytoskeletal stiffness),Ocy454 cells [7],increased
same,FSS-induced decrease in sclerostin protein,sclerostin [1]; 4 dynes/cm^2 FSS,blunts
same,FSS-induced decrease in sclerostin protein,sclerostin [1]; 16 dynes/cm^2 FSS,restored
COc1cc2c(c(OC)c1OC)-c1ccc(OC)c(=O)cc1[C@@H](NC(C)=O)CC2 [colchicine],white adipose accumulation / fat mass in white adipose depots,aged mice [8],reduced
same,adipocyte area,aged mice [8]; 8 weeks colchicine,1441.64 μm^2
same,gonadal fat,aged mice [8]; 8 weeks colchicine,reduced
same,inguinal fat,aged mice [8]; 8 weeks colchicine,reduced
same,microtubule network density / structure,Ocy454 cells [5],reduction
same,"% Cells Responding to FSS, Ca2+ response (mechano-sensitivity)",Ocy454 cells [3]; 4 dynes/cm^2 FSS,decreased
same,Peak(ΔF/F) magnitude of Ca2+ response (mechano-responsiveness),Ocy454 cells [3]; 4 dynes/cm^2 FSS,reducing
same,"% Cells Responding to FSS, Ca2+ response (mechano-sensitivity)",Ocy454 cells [3]; 16 dynes/cm^2 FSS,decreased
same,Peak(ΔF/F) magnitude of Ca2+ response (mechano-responsiveness),Ocy454 cells [3]; 16 dynes/cm^2 FSS,reducing
same,trabecular bone mass,aged mice [9]; 8 weeks colchicine,No changes were observed
same,bone accumulation,aged mice [9]; aged mice,increases
same,bone formation rate (BFR) on the cortical bone perimeter,"aged mice [9]; aged mice (78 weeks), 1 mg/L colcrys in drinking water, 8 weeks",increased; also recorded: improved
same,cortical bone volume,"aged mice [9]; microCT, 8 weeks colchicine",tended towards increases
same,polar mean moment of inertia,"aged mice [9]; microCT, 8 weeks colchicine",tended towards increases
same,bone mineral content (BMC),aged mice [9]; [13],tended towards increases
same,bone mineral density (BMD),aged mice [9]; [13],tended towards increases
same,FSS-induced CaMKII phosphorylation,CaMKII; 4 dynes/cm^2 FSS,eliminated
same,FSS-induced decrease in sclerostin protein,sclerostin [1]; 4 dynes/cm^2 FSS,eliminated
same,bone derived sclerostin,sclerostin [10],decreased; also recorded: reduced
same,maximum contraction velocity,aged mice [11],increase
same,maximum muscle power,aged mice [11],increase; also recorded: improved
same,muscle mass in the gastrocnemius muscle,aged mice [11],did not increase
